Where two headings read alike, the source gives them in different places.
Biological target: T1, full-length SHP2 (His6-tagged SHP2(2-527)) (Homo sapiens, UniProt Q06124)
T1 construct: His6-tagged SHP2(2-527); His6; made in house; host or cells: E. coli
Test: SHP2 Enzymatic Assay (fluorescence intensity kinetic assay, DiFMUP hydrolysis)
Assay type: biochemical
Outline: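 1 nM His6-SHP2(2-527), activated by 1 μM bis-phosphopeptide, hydrolysed 50 μM DiFMUP in 25 mM HEPES pH 7.4 with 1 mM DTT, 50 mM KCl and 2% DMSO. DiFMU fluorescence (Ex 355/Em 460 nm) was read kinetically for 15 min at ambient temperature.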

[1] = full-length SHP2 with 1 μM activating peptide, 50 μM DiFMUP, single assay or mean of multiple assays, read-out: Biological Example 1 IC50

T1 sequence (Q06124 2-527): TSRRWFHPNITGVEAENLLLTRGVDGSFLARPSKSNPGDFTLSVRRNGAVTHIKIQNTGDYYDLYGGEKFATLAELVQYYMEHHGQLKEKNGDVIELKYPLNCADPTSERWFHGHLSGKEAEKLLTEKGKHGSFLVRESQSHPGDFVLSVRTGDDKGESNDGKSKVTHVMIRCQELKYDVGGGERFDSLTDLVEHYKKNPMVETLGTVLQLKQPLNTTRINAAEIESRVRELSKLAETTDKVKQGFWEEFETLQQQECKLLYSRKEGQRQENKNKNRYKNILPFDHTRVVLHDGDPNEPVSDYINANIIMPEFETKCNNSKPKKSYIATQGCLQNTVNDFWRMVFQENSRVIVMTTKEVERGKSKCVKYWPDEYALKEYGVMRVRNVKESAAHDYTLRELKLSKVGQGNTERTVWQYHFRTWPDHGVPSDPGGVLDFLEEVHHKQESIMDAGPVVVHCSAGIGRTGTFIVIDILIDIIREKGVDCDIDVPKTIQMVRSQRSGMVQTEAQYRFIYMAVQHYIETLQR

Structure (SMILES)	IC50 [nM]	IC50 [1] [nM]
Nc1nccc(Sc2ccc3nc(N4CCC(N)(Cc5ccccc5)CC4)cnc3n2)c1Cl [Example 181, 4-((2-(4-amino-4-benzylpiperidin-1-yl)pyrido[2,3-b]pyrazin-6-yl)thio)-3-chloropyridin-2-amine]	75	
C[C@@H]1OCC2(CCN(c3cnc4nc(Sc5c(C(F)(F)F)cnc6[nH]ccc56)ccc4n3)CC2)[C@@H]1N [Example 193, (3S,4S)-3-methyl-8-(6-((5-(trifluoromethyl)-1H-pyrrolo[2,3-b]pyridin-4-yl)thio)pyrido[2,3-b]pyrazin-2-yl)-2-oxa-8-azaspiro[4.5]decan-4-amine]	138	
CNC1(C)CCN(c2cnc3nc(Sc4ccnc(N)c4Cl)ccc3n2)CC1 [Example 31, 3-chloro-4-((2-(4-methyl-4-(methylamino)piperidin-1-yl)pyrido[2,3-b]pyrazin-6-yl)thio)pyridin-2-amine]		100
N[C@@H]1c2ccccc2CC12CCN(c1cnc3nc(Sc4cnc5ccc(Cl)cn45)ccc3n1)CC2 [Example 127, (S)-1′-(6-((6-chloroimidazo[1,2-a]pyridin-3-yl)thio)pyrido[2,3-b]pyrazin-2-yl)-1,3-dihydrospiro[indene-2,4′-piperidin]-1-amine]	82	
CC1(N)CCN(c2cnc3nc(Sc4cccc(Cl)c4Cl)ccc3n2)CC1 [Example 6, 1-(6-((2,3-dichlorophenyl)thio)pyrido[2,3-b]pyrazin-2-yl)-4-methylpiperidin-4-amine]	58	
C[C@@H]1OCC2(CCN(c3cnc4nc(Sc5ccnc(NC6CC6)c5Cl)ccc4n3)CC2)[C@@H]1N [Example 184, (3S,4S)-8-(6-((3-chloro-2-(cyclopropylamino)pyridin-4-yl)thio)pyrido[2,3-b]pyrazin-2-yl)-3-methyl-2-oxa-8-azaspiro[4.5]decan-4-amine]	413	
C[C@@H]1OCC2(CCN(c3cnc4nc(Sc5ccnc(N6CCOCC6)c5Cl)ccc4n3)CC2)[C@@H]1N [Example 79, (3S,4S)-8-(6-((3-chloro-2-morpholinopyridin-4-yl)thio)pyrido[2,3-b]pyrazin-2-yl)-3-methyl-2-oxa-8-azaspiro[4,5]decan-4-amine]	425	
COc1ccc(-c2ccc3nc(N4CCC(C)(N)CC4)cnc3n2)c(Cl)c1Cl [Example 30, 1-(6-(2,3-dichloro-4-methoxyphenyl)pyrido[2,3-b]pyrazin-2-yl)-4-methylpiperidin-4-amine]	420	
NCC1CN(c2cnc3nc(Sc4ccnc(N)c4Cl)ccc3n2)CCO1 (centres unmarked) [Example 62, 4-((2-(2-(aminomethyl)morpholino)pyrido[2,3-b]pyrazin-6-yl)thio)-3-chloropyridin-2-amine]	165	
Nc1nccc(Sc2ccc3nc(N4CCC5(CC4)Oc4ccccc4[C@H]5N)cnc3n2)c1Cl [Example 132]	31	
CC1(N)CCN(c2ccc3nc(Sc4cccc(Cl)c4Cl)cnc3n2)CC1 [Example 7, 1-(2-((2,3-dichlorophenyl)thio)pyrido[2,3-b]pyrazin-6-yl)-4-methylpiperidin-4-amine]	9500	
NCC1CC2CCC(C1)N2c1cnc2nc(Sc3ccnc(N)c3Cl)ccc2n1 (centres unmarked) [Example 102, 4-((2-(3-(aminomethyl)-8-azabicyclo[3.2.1]octan-8-yl)pyrido[2,3-b]pyrazin-6-yl)thio)-3-chloropyridin-2-amine]	44	
CC1(N)CCN(c2cnc3nc(Sc4ccnc(N5CCCC5)c4Cl)ccc3n2)CC1 [Example 49, 1-(6-((3-chloro-2-(pyrrolidin-1-yl)pyridin-4-yl)thio)pyrido[2,3-b]pyrazin-2-yl)-4-methylpiperidin-4-amine]	63	
COCCNc1nccc(Sc2ccc3nc(N4CCC(C)(N)CC4)cnc3n2)c1Cl [Example 194, 4-((2-(4-amino-4-methylpiperidin-1-yl)pyrido[2,3-b]pyrazin-6-yl)thio)-3-chloro-N-(2-methoxyethyl)pyridin-2-amine]	238	
CC(C)(O)CC1(N)CCN(c2cnc3nc(Sc4ccnc(N)c4Cl)ccc3n2)CC1 [Example 129, 1-(4-amino-1-(6-((2-amino-3-chloropyridin-4-yl)thio)pyrido[2,3-b]pyrazin-2-yl)piperidin-4-yl)-2-methylpropan-2-ol]	34	
N[C@@H]1c2ccccc2CC12CCN(c1cnc3nc(Oc4ccc(F)cc4)ccc3n1)CC2 [Example 123, (S)-1′-(6-(4-fluorophenoxy)pyrido[2,3-b]pyrazin-2-yl)-1,3-dihydrospiro[indene-2,4′-piperidin]-1-amine]	21	
CNc1nccc(Sc2ccc3nc(N4CCC[C@](C)(N)CC4)cnc3n2)c1Cl (single isomer, unassigned) [Example 149]	98	
COc1cnc2c(c1)[C@@H](N)C1(CCN(c3cnc4nc(Sc5ccnc(N)c5Cl)ccc4n3)CC1)C2 [Example 115, (S)-1′-(6-((2-amino-3-chloropyridin-4-yl)thio)pyrido[2,3-b]pyrazin-2-yl)-3-methoxy-5,7-dihydrospiro[cyclopenta[b]pyridine-6,4′-piperidin]-5-amine]		60

Structure (SMILES)	IC50 [nM]	IC50 [1] [nM]
CC1(CN)CCN(c2cnc3nc(Sc4ccnc(N)c4Cl)ccc3n2)CC1 [Example 12, 4-((2-(4-(aminomethyl)-4-methylpiperidin-1-yl)pyrido[2,3-b]pyrazin-6-yl)thio)-3-chloropyridin-2-amine]		61
Nc1nccc(Sc2ccc3nc(N4C5CNCC4C5)cnc3n2)c1Cl [Example 205]	114	
C[C@@H]1OCC2(CCN(c3cnc4nc(Sc5ccnc(N6CCS(=O)(=O)CC6)c5Cl)ccc4n3)CC2)[C@@H]1N [Example 77, 4-(4-((2-((3S,4S)-4-amino-3-methyl-2-oxa-8-azaspiro[4.5]decan-8-yl)pyrido[2,3-b]pyrazin-6-yl)thio)-3-chloropyridin-2-yl)thiomorpholine 1,1-dioxide]	344	
CNC1C[C@@H]2CC[C@@H](C1)N2c1cnc2nc(Sc3ccnc(N)c3Cl)ccc2n1 (stereo partly drawn) [Example 93, (1S,3s,5S)-8-(6-((2-amino-3-chloropyridin-4-yl)thio)pyrido[2,3-b]pyrazin-2-yl)-N-methyl-8-azabicyclo[3.2.1]octan-3-amine]	49	
Nc1nccc(Sc2ccc3nc(N4CCC5(CCCC5N)C4)cnc3n2)c1Cl (centres unmarked) [Example 83, 2-(6-((2-amino-3-chloropyridin-4-yl)thio)pyrido[2,3-b]pyrazin-2-yl)-2-azaspiro[4.4]nonan-6-amine]	173	
C[C@@H]1OCC2(CCN(c3cnc4nc(Sc5ccnc(N6CC[C@@H](O)C6)c5Cl)ccc4n3)CC2)[C@@H]1N [Example 107, (R)-1-(4-((2-((3S,4S)-4-amino-3-methyl-2-oxa-8-azaspiro[4.5]decan-8-yl)pyrido[2,3-b]pyrazin-6-yl)thio)-3-chloropyridin-2-yl)pyrrolidin-3-ol]	120	
C[C@@H]1OCC2(CCN(c3cnc4nc(Sc5ccncc5F)ccc4n3)CC2)[C@@H]1N [Example 186, (3S,4S)-8-(6-((3-fluoropyridin-4-yl)thio)pyrido[2,3-b]pyrazin-2-yl)-3-methyl-2-oxa-8-azaspiro[4.5]decan-4-amine]	2310	
Cc1nccc(Sc2ccc3nc(N4CCC[C@@](C)(N)CC4)cnc3n2)c1Cl (single isomer, unassigned) [Example 150]	50	
C[C@@H]1OCC2(CCN(c3cnc4nc(Sc5ccnc(N)c5F)ccc4n3)CC2)[C@@H]1N [Example 175, (3S,4S)-8-(6-((2-amino-3-fluoropyridin-4-yl)thio)pyrido[2,3-b]pyrazin-2-yl)-3-methyl-2-oxa-8-azaspiro[4.5]decan-4-amine]	1230	
CC1(N)CCN(c2cnc3nc(-c4cccc(Cl)c4)ccc3n2)CC1 [Example 3, 1-(6-(3-chlorophenyl)pyrido[2,3-b]pyrazin-2-yl)-4-methylpiperidin-4-amine]	1800	
C[C@@H]1OCC2(CCN(c3cnc4nc(Sc5ccc(N)nc5C(F)(F)F)ccc4n3)CC2)[C@@H]1N [Example 176, (3S,4S)-8-(6-((6-amino-2-(trifluoromethyl)pyridin-3-yl)thio)pyrido[2,3-b]pyrazin-2-yl)-3-methyl-2-oxa-8-azaspiro[4.5]decan-4-amine]	109	
CNc1nccc(Sc2ccc3nc(N4CCC(C)(N)CC4)cnc3n2)c1Cl [Example 161, 4-((2-(4-amino-4-methylpiperidin-1-yl)pyrido[2,3-b]pyrazin-6-yl)thio)-3-chloro-N-methylpyridin-2-amine]	45	
NCC1(O)CCN(c2cnc3nc(Sc4ccnc(N)c4Cl)ccc3n2)CC1 [Example 42, 1-(6-((2-amino-3-chloropyridin-4-yl)thio)pyrido[2,3-b]pyrazin-2-yl)-4-(aminomethyl)piperidin-4-ol]	95	
CNc1nccc(Sc2ccc3nc(N4CCCC(C)(N)CC4)cnc3n2)c1Cl (centres unmarked) [Example 146, 1-(6-((3-chloro-2-(methylamino)pyridin-4-yl)thio)pyrido[2,3-b]pyrazin-2-yl)-4-methylazepan-4-amine]	89	
C[C@@H]1OCC2(CCN(c3cnc4nc(Sc5ccnc(N6CC[C@H](CO)C6)c5Cl)ccc4n3)CC2)[C@@H]1N [Example 87, ((S)-1-(4-((2-((3S,4S)-4-amino-3-methyl-2-oxa-8-azaspiro[4.5]decan-8-yl)pyrido[2,3-b]pyrazin-6-yl)thio)-3-chloropyridin-2-yl)pyrrolidin-3-yl)methanol]	126	
CC1(N)CCN(c2cnc3nc(Sc4ccnc5ncccc45)ccc3n2)CC1 [Example 197, 1-(6-((1,8-naphthyridin-4-yl)thio)pyrido[2,3-b]pyrazin-2-yl)-4-methylpiperidin-4-amine]	1510	
Nc1nccc(Sc2ccc3nc(N4CC5CCC4CNC5)cnc3n2)c1Cl (centres unmarked) [Example 202, 4-((2-(3,6-diazabicyclo[3.2.2]nonan-6-yl)pyrido[2,3-b]pyrazin-6-yl)thio)-3-chloropyridin-2-amine]	132	

Reference: patent US12187721B2, “Protein tyrosine phosphatase inhibitors” (Array BioPharma Inc., priority 2018, dated 2025)
